Measurements from PMC12454639, “Direct disassembly of α-syn preformed fibrils into α-syn monomers by an all-D-peptide” (NPJ Parkinson's Disease, 2025).
Square brackets hold non-standard residues; d marks the D form. Peptide text beside a SMILES is read from it.

Legend:
[1] = test system: 15N-labeled full-length acetyl-α-syn; assay: 1H-15N HSQC NMR; format: binding
Procedure: Samples were prepared at final concentrations of 25 µM ^15N-labeled full-length acetyl-α-syn in the absence (reference) and presence of an equimolar amount of SVD-1a (not isotopically labeled, thus NMR-invisible) in PBS buffer, pH 7.4, with an addition of 5% D2O for internal reference. 2D 1H-15N HSQC spectra were recorded back-to-back, on a Bruker AVANCE NEO spectrometer (Bruker, USA) operating at 1200 MHz proton Larmor frequency. The experimental temperature was 10 °C. Spectral dimensions were 16.02 ppm (^1H) x 30 ppm (^15N), with 2048 points in the ^1H dimension and 256 increments in the ^15N dimension, resulting in an acquisition time of 53 ms for the ^1H dimension and 35 ms for the ^15N dimension. For each increment, 32 scans were recorded, with a recovery delay of 1 s between scans, resulting in an overall experimental time of […] per spectrum.
NMR data sets were processed using the Bruker TopSpin software (version 4.1.1) and visualized using CcpNmr Analysis (v2.4.2)[59]. For the assessment of chemical shift changes of α-syn resonances in the presence of SVD-1a relative to the reference spectrum (without SVD-1a), peak positions were extracted using the CcpNmr Analysis software. From the residue-specific chemical shift changes in the ^1H and ^15N dimensions, an absolute chemical shift change, Δδ, was calculated using the formula Δδ = 0.5δH2+0.14δN2 [60]. […]

α-syn monomer = assay: 100 kDa MWCO fractionation of de novo aggregation samples followed by ELISA; format: biochemical, Human; details: 7 days, ELISA n = 3
Procedure: Fig. 7 De novo aggregation analysis of α-syn in the presence and absence of SVD-1a. A De novo ThT assay of 10 µM α-syn with and without 20 µM SVD-1a. ThT fluorescence progression was measured in a 96-well non-binding half-area plate (Corning, USA) with a FLUOStar plate reader (BMG labtech, GE) at λex = 448 nm and λem = 482 nm with 300 rpm continuous orbital shaking between reads. For induction of aggregation, one borosilicate bead per well was added (d = 3 mm, Hilgenberg, GE). Data are shown as mean values with ±SD (n = 5). B CD secondary structure analysis of de novo aggregation samples. Samples were incubated as described in (A) without added ThT (n = 3) and subsequently pooled for CD analysis. Far-UV ellipticity of the samples was measured in a quartz cuvette (l = 10 mm) in a J-1100 CD-spectrometer (Jasco, GE). In addition to (A), a sample with 20 µM SVD-1a alone was incubated under identical conditions and later used as a reference for the sample with α-syn and SVD-1a. For this sample (α-syn + SVD-1a (after incubation)), the SVD-1a reference subtracted CD spectrum is shown. […] D α-Syn in the flow through (MWCO < 100 kDa) was quantified using an α-syn specific ELISA (BioLegend, Human α-Synuclein (Colorimetric), 448607, n = 3). E Retentate and flow-through samples were analyzed using SDS–PAGE with silver staining. […]

Structure (SMILES): CC[C@@H](C)[C@@H](NC(=O)[C@@H](Cc1c[nH]cn1)NC(=O)[C@@H](CCC(=O)O)NC(=O)[C@@H](CCC(N)=O)NC(=O)[C@@H](Cc1c[nH]c2ccccc12)NC(=O)[C@@H](Cc1ccc(O)cc1)NC(=O)[C@H](NC(=O)[C@@H](CCC(=O)O)NC(=O)[C@@H](Cc1c[nH]cn1)NC(=O)[C@H](NC(=O)[C@H]1CCCN1C(=O)[C@@H](CC(C)C)NC(=O)[C@H](N)CCCNC(=N)N)[C@H](C)O)[C@H](C)O)C(=O)N[C@H](Cc1c[nH]c2ccccc12)C(=O)N[C@H](Cc1c[nH]cn1)C(=O)N[C@H](C)C(=O)N[C@H](CCCNC(=N)N)C(=O)N[C@H](CCCNC(=N)N)C(=O)N[C@H](CCCNC(=N)N)C(=O)N[C@H](CCCNC(=N)N)C(=O)N[C@H](CCCNC(=N)N)C(N)=O [SVD-1a] (H-[dR][dL][dP][dT][dH][dE][dT][dY][dW][dQ][dE][dH][dI][dW][dH][dA][dR][dR][dR][dR][dR]-NH2)
- NMR chemical shift changes of α-syn ([1]; 25 µM 15N-α-syn + 25 µM SVD-1a, PBS pH 7.4, 10 °C, 1200 MHz): the chemical shift changes are very small, with most residues showing significant chemical shift changes located in the C-terminal region
- precipitation of α-syn in NMR sample ([1]; 25 µM α-syn with 25 µM SVD-1a, 4.8 h at 10 °C): did not yield any signs of signal loss due to precipitation
- monomeric α-syn in flow-through (α-syn monomer; 10 µM α-syn with 5, 10, 20 µM SVD-1a, controls ~3.7 µM before, ~0.3 µM after incubation without compound): concentration-dependent stabilization of monomeric α-syn
- monomeric α-syn in flow-through vs non-pre-incubated control (α-syn monomer; 20 µM SVD-1a, 10 µM α-syn): restoring monomer levels in the eluate to those of the non-pre-incubated control
